From the supplement of paper PMC12494721

Key:
Settings in all cases: incubation time: 27 h, anaerobic, 37 °C
[1] = tested on: Ruminococcus gnavus DSM 108212; experiment: fold change of Tryptamine concentration vs plate DMSO controls (fold change (ratio)); higher = more amine produced
[2] = tested on: Clostridium sporogenes DSM 1664; experiment: as above
Escherichia coli IAI1 [3] = experiment: growth (OD595) fold change vs plate DMSO controls (fold change (ratio)); higher = more growth
[4] = tested on: Ruminococcus gnavus DSM 108212; experiment: as above
[5] = tested on: Klebsiella aerogenes DSM 30053; experiment: as above
[6] = tested on: Clostridium sporogenes DSM 1664; experiment: as above
[7] = tested on: Ruminococcus gnavus DSM 108212; experiment: fold change of 2-Phenylethylamine concentration vs plate DMSO controls (fold change (ratio)); higher = more amine produced
Escherichia coli IAI1 [8] = experiment: fold change of Putrescine concentration vs plate DMSO controls (fold change (ratio)); higher = more amine produced
[9] = tested on: Klebsiella aerogenes DSM 30053; experiment: as above
Escherichia coli IAI1 [10] = experiment: fold change of Cadaverine concentration vs plate DMSO controls (fold change (ratio)); higher = more amine produced
[11] = tested on: Klebsiella aerogenes DSM 30053; experiment: as above
[12] = tested on: Klebsiella aerogenes DSM 30053; experiment: fold change of Histamine concentration vs plate DMSO controls (fold change (ratio)); higher = more amine produced
Procedure: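 Dose-response follow-up: bacteria (E. coli IAI1, K. aerogenes DSM 30053, C. sporogenes DSM 1664, R. gnavus DSM 108212) were grown anaerobically in mGAM at 37 °C for 27 h with compound at 0.6125-20 µM. Amines were measured in the whole culture by targeted LC-MS/MS. Metabolite fold change and OD595 fold change are relative to plate DMSO controls; n=2 biological replicates. OD fold changes are not clipped, so slightly negative values mean no growth.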

CCn1cc(C(=O)O)c(=O)c2cc(F)c(N3CCNCC3)nc21 [Enoxacin]
fold change of Tryptamine concentration ([1]; 0.6125 µM): 0.907 | fold change of Tryptamine concentration ([1]; 1.25 µM): 1.03 | fold change of Tryptamine concentration ([1]; 2.5 µM): 1.98 | fold change of Tryptamine concentration ([1]; 5 µM): 1.5 | fold change of Tryptamine concentration ([1]; 10 µM): 1.3 | fold change of Tryptamine concentration ([1]; 20 µM): 1.47 | fold change of Tryptamine concentration ([2]; 0.6125 µM): 0.988 | fold change of Tryptamine concentration ([2]; 1.25 µM): 0.965 | fold change of Tryptamine concentration ([2]; 2.5 µM): 0.972 | fold change of Tryptamine concentration ([2]; 5 µM): 0.712 | fold change of Tryptamine concentration ([2]; 10 µM): 0.133 | fold change of Tryptamine concentration ([2]; 20 µM): 0.0376 | growth (Escherichia coli IAI1 [3]; 0.6125 µM): 0.893 | growth (Escherichia coli IAI1 [3]; 1.25 µM): -0.0647 | growth (Escherichia coli IAI1 [3]; 2.5 µM): -0.041 | growth (Escherichia coli IAI1 [3]; 5 µM): 0.063 | growth (Escherichia coli IAI1 [3]; 10 µM): 0.0275 | growth (Escherichia coli IAI1 [3]; 20 µM): -0.0283 | growth ([4]; 0.6125 µM): 0.917 | growth ([4]; 1.25 µM): 1.07 | growth ([4]; 2.5 µM): 0.725 | growth ([4]; 5 µM): 0.638 | growth ([4]; 10 µM): 0.638 | growth ([4]; 20 µM): 0.488 | growth ([5]; 0.6125 µM): 0.845 | growth ([5]; 1.25 µM): 1.25 | growth ([5]; 2.5 µM): 0.554 | growth ([5]; 5 µM): 0.373 | growth ([5]; 10 µM): 0.469 | growth ([5]; 20 µM): 0.328 | growth ([6]; 0.6125 µM): 1.15 | growth ([6]; 1.25 µM): 1.19 | growth ([6]; 2.5 µM): 1.06 | growth ([6]; 5 µM): 0.904 | growth ([6]; 10 µM): 0.245 | growth ([6]; 20 µM): 0.00474 | fold change of 2-Phenylethylamine concentration ([7]; 0.6125 µM): 0.788 | fold change of 2-Phenylethylamine concentration ([7]; 1.25 µM): 1.01 | fold change of 2-Phenylethylamine concentration ([7]; 2.5 µM): 1.5 | fold change of 2-Phenylethylamine concentration ([7]; 5 µM): 1.16 | fold change of 2-Phenylethylamine concentration ([7]; 10 µM): 1.04 | fold change of 2-Phenylethylamine concentration ([7]; 20 µM): 1.15 | fold change of Putrescine concentration (Escherichia coli IAI1 [8]; 0.6125 µM): 0.829 | fold change of Putrescine concentration (Escherichia coli IAI1 [8]; 1.25 µM): 0.362 | fold change of Putrescine concentration (Escherichia coli IAI1 [8]; 2.5 µM): 0.557 | fold change of Putrescine concentration (Escherichia coli IAI1 [8]; 5 µM): 0.832 | fold change of Putrescine concentration (Escherichia coli IAI1 [8]; 10 µM): 0.916 | fold change of Putrescine concentration (Escherichia coli IAI1 [8]; 20 µM): 0.993 | fold change of Putrescine concentration ([9]; 0.6125 µM): 1.03 | fold change of Putrescine concentration ([9]; 1.25 µM): 1.06 | fold change of Putrescine concentration ([9]; 2.5 µM): 1.2 | fold change of Putrescine concentration ([9]; 5 µM): 1.27 | fold change of Putrescine concentration ([9]; 10 µM): 1.3 | fold change of Putrescine concentration ([9]; 20 µM): 1.34 | fold change of Cadaverine concentration (Escherichia coli IAI1 [10]; 0.6125 µM): 1.43 | fold change of Cadaverine concentration (Escherichia coli IAI1 [10]; 1.25 µM): 1.6 | fold change of Cadaverine concentration (Escherichia coli IAI1 [10]; 2.5 µM): 1.14 | fold change of Cadaverine concentration (Escherichia coli IAI1 [10]; 5 µM): 0.433 | fold change of Cadaverine concentration (Escherichia coli IAI1 [10]; 10 µM): 0.292 | fold change of Cadaverine concentration (Escherichia coli IAI1 [10]; 20 µM): 0.278 | fold change of Cadaverine concentration ([11]; 0.6125 µM): 0.977 | fold change of Cadaverine concentration ([11]; 1.25 µM): 0.984 | fold change of Cadaverine concentration ([11]; 2.5 µM): 0.985 | fold change of Cadaverine concentration ([11]; 5 µM): 1.01 | fold change of Cadaverine concentration ([11]; 10 µM): 0.999 | fold change of Cadaverine concentration ([11]; 20 µM): 0.994 | fold change of Histamine concentration ([12]; 0.6125 µM): 0.971 | fold change of Histamine concentration ([12]; 1.25 µM): 1.17 | fold change of Histamine concentration ([12]; 2.5 µM): 1.18 | fold change of Histamine concentration ([12]; 5 µM): 0.54 | fold change of Histamine concentration ([12]; 10 µM): 0.252 | fold change of Histamine concentration ([12]; 20 µM): 0.329

C[C@@H](O)[C@H]1C(=O)N2C(C(=O)O)=C(S[C@@H]3CN[C@H](C(=O)N(C)C)C3)[C@H](C)[C@H]12 [Meropenem]
fold change of Tryptamine concentration ([1]; 0.6125 µM): 1.11 | fold change of Tryptamine concentration ([1]; 1.25 µM): 0.93 | fold change of Tryptamine concentration ([1]; 2.5 µM): 0.801 | fold change of Tryptamine concentration ([1]; 5 µM): 0.259 | fold change of Tryptamine concentration ([1]; 10 µM): 0.217 | fold change of Tryptamine concentration ([1]; 20 µM): 0.2 | growth ([4]; 0.6125 µM): 1.13 | growth ([4]; 1.25 µM): 1.07 | growth ([4]; 2.5 µM): 1.63 | growth ([4]; 5 µM): 1.88 | growth ([4]; 10 µM): 0.41 | growth ([4]; 20 µM): 0.365 | growth ([5]; 0.6125 µM): 0.844 | growth ([5]; 1.25 µM): 0.992 | growth ([5]; 2.5 µM): 0.894 | growth ([5]; 5 µM): 1.4 | growth ([5]; 10 µM): 0.935 | growth ([5]; 20 µM): 0.363 | fold change of 2-Phenylethylamine concentration ([7]; 0.6125 µM): 0.912 | fold change of 2-Phenylethylamine concentration ([7]; 1.25 µM): 0.801 | fold change of 2-Phenylethylamine concentration ([7]; 2.5 µM): 0.578 | fold change of 2-Phenylethylamine concentration ([7]; 5 µM): 0.185 | fold change of 2-Phenylethylamine concentration ([7]; 10 µM): 0.162 | fold change of 2-Phenylethylamine concentration ([7]; 20 µM): 0.162 | fold change of Putrescine concentration ([9]; 0.6125 µM): 1 | fold change of Putrescine concentration ([9]; 1.25 µM): 1.06 | fold change of Putrescine concentration ([9]; 2.5 µM): 0.976 | fold change of Putrescine concentration ([9]; 5 µM): 1.01 | fold change of Putrescine concentration ([9]; 10 µM): 0.879 | fold change of Putrescine concentration ([9]; 20 µM): 0.667 | fold change of Cadaverine concentration ([11]; 0.6125 µM): 0.982 | fold change of Cadaverine concentration ([11]; 1.25 µM): 1.01 | fold change of Cadaverine concentration ([11]; 2.5 µM): 1 | fold change of Cadaverine concentration ([11]; 5 µM): 1.06 | fold change of Cadaverine concentration ([11]; 10 µM): 1.13 | fold change of Cadaverine concentration ([11]; 20 µM): 1.18 | fold change of Histamine concentration ([12]; 0.6125 µM): 0.953 | fold change of Histamine concentration ([12]; 1.25 µM): 0.643 | fold change of Histamine concentration ([12]; 2.5 µM): 0.612 | fold change of Histamine concentration ([12]; 5 µM): 0.462 | fold change of Histamine concentration ([12]; 10 µM): 0.289 | fold change of Histamine concentration ([12]; 20 µM): 0.227

CN1CCN(c2c(F)cc3c(=O)c(C(=O)O)cn4c3c2SCC4)CC1 [Rufloxacin]
fold change of Tryptamine concentration ([1]; 0.6125 µM): 0.989 | fold change of Tryptamine concentration ([1]; 1.25 µM): 1.18 | fold change of Tryptamine concentration ([1]; 2.5 µM): 2.02 | fold change of Tryptamine concentration ([1]; 5 µM): 1.51 | fold change of Tryptamine concentration ([1]; 10 µM): 1.24 | fold change of Tryptamine concentration ([1]; 20 µM): 1.16 | fold change of Tryptamine concentration ([2]; 0.6125 µM): 1 | fold change of Tryptamine concentration ([2]; 1.25 µM): 0.994 | fold change of Tryptamine concentration ([2]; 2.5 µM): 0.972 | fold change of Tryptamine concentration ([2]; 5 µM): 0.931 | fold change of Tryptamine concentration ([2]; 10 µM): 0.674 | fold change of Tryptamine concentration ([2]; 20 µM): 0.0448 | growth ([4]; 0.6125 µM): 1.07 | growth ([4]; 1.25 µM): 0.974 | growth ([4]; 2.5 µM): 0.91 | growth ([4]; 5 µM): 0.61 | growth ([4]; 10 µM): 0.593 | growth ([4]; 20 µM): 0.484 | growth ([5]; 0.6125 µM): 0.848 | growth ([5]; 1.25 µM): 0.939 | growth ([5]; 2.5 µM): 0.636 | growth ([5]; 5 µM): 0.425 | growth ([5]; 10 µM): 0.466 | growth ([5]; 20 µM): 0.37 | growth ([6]; 0.6125 µM): 1.09 | growth ([6]; 1.25 µM): 0.879 | growth ([6]; 2.5 µM): 0.898 | growth ([6]; 5 µM): 1.09 | growth ([6]; 10 µM): 0.742 | growth ([6]; 20 µM): 0.0686 | fold change of 2-Phenylethylamine concentration ([7]; 0.6125 µM): 0.871 | fold change of 2-Phenylethylamine concentration ([7]; 1.25 µM): 1.12 | fold change of 2-Phenylethylamine concentration ([7]; 2.5 µM): 2.04 | fold change of 2-Phenylethylamine concentration ([7]; 5 µM): 1.33 | fold change of 2-Phenylethylamine concentration ([7]; 10 µM): 1.22 | fold change of 2-Phenylethylamine concentration ([7]; 20 µM): 1.18 | fold change of Putrescine concentration ([9]; 0.6125 µM): 0.99 | fold change of Putrescine concentration ([9]; 1.25 µM): 0.992 | fold change of Putrescine concentration ([9]; 2.5 µM): 1.05 | fold change of Putrescine concentration ([9]; 5 µM): 1.12 | fold change of Putrescine concentration ([9]; 10 µM): 1.19 | fold change of Putrescine concentration ([9]; 20 µM): 1.19 | fold change of Cadaverine concentration ([11]; 0.6125 µM): 0.967 | fold change of Cadaverine concentration ([11]; 1.25 µM): 0.979 | fold change of Cadaverine concentration ([11]; 2.5 µM): 0.981 | fold change of Cadaverine concentration ([11]; 5 µM): 1.03 | fold change of Cadaverine concentration ([11]; 10 µM): 1.09 | fold change of Cadaverine concentration ([11]; 20 µM): 1.12 | fold change of Histamine concentration ([12]; 0.6125 µM): 1.1 | fold change of Histamine concentration ([12]; 1.25 µM): 1.03 | fold change of Histamine concentration ([12]; 2.5 µM): 1.96 | fold change of Histamine concentration ([12]; 5 µM): 0.834 | fold change of Histamine concentration ([12]; 10 µM): 0.211 | fold change of Histamine concentration ([12]; 20 µM): 0.22
